Laboratory results reported in patent US10407467B2, “Polymyxin derivatives and their use in combination therapy together with different antibiotics” (priority 2013, dated 2019).
Where a name gives a salt, the structure may show the parent alone. Read-outs that look alike come from different tables or passages of the source. Numbered stars: 1 amine (or outer) side, 2 acyl side, 3 side chain; on linkers, the order of the positions; unused ones are H or OH. Bridge positions count the residues as written; N and C are the ends. Square brackets hold non-standard residues; d marks the D form. Peptide text beside a SMILES is read from it. * marks the point of attachment. ξ: configuration not given here. NHCH2(1,3-C6H4)CH2CO = O=C(Cc1cccc(CN[*:1])c1)[*:2]; ξβ3hPhg = O=C(CC(N[*:1])c1ccccc1)[*:2]; X6 = N[C@@H](CC(=O)*)c1ccc2ccccc2c1; ξβ3hGly(cHex) = NC(CC(=O)*)C1CCCCC1; Thr(3ξ) = CC(O)[C@H](N)C(=O)O; Dab = NCC[C@H](N)C(=O)O; Dap = NC[C@H](N)C(=O)O

Experiments:
Acinetobacter baumannii [1] = assay: MIC, sole activity (no second agent); format: cell-based; conditions: in the absence of Rifampicin; for MIC A. baumannii ATCC13424: strain ATCC13424; for MIC A. baumannii CCUG57249: strain CCUG 57249; for MIC A. baumannii ATCCBAA-747: strain ATCCBAA-747
Summary of the method: (§1)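 Up to four strains per species were tested in cation-adjusted Mueller-Hinton broth, with inoculum made by direct colony suspension from 18-24 hour Mueller-Hinton agar plates, adjusted to 0.5 McFarland. Duplicates differing by under 2-fold gave the lower value; greater spread voided the run. Values are relative to Polymyxin B.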

Klebsiella pneumoniae [2] = assay: MIC, sole activity (no second agent); format: cell-based; conditions: in the absence of Rifampicin; for MIC K. pneumoniae ATCC 4352: strain ATCC 4352; for MIC K. pneumoniae CCUG-59348: strain CCUG-59348; for MIC K. pneumoniae NCTC-13438: strain NCTC-13438; for MIC K. pneumoniae ATCC-BAA2146: strain ATCC-BAA2146
Summary of the method: as §1

Pseudomonas aeruginosa [3] = assay: MIC, sole activity (no second agent); format: cell-based; conditions: in the absence of Rifampicin; for MIC P. aeruginosa ATCC 27853: strain ATCC27853; for MIC P. aeruginosa ATCC-47: strain ATCC-47; for MIC P. aeruginosa CCUG 59626: strain CCUG 59626; for MIC P. aeruginosa ATCCCRM-9027: strain ATCCCRM-9027
Summary of the method: as §1

Escherichia coli [4] = assay: MIC, sole activity (no second agent); format: cell-based; conditions: in the absence of Rifampicin; for MIC E. coli ATCC25922: strain ATCC25922; for MIC E. coli NCTC9001: strain NCTC9001
Summary of the method: as §1

P. aeruginosa ATCC 27853 = conditions: for Log reduction from vehicle (CFU/g): ATCC 27853, in vivo, iv; for reduction of thigh burdens: 4 mg/kg IV three times at 1, 3.5 and 6 hours post infection
Acinetobacter baumannii [5] = assay: MIC, compound in combination with a second agent (broth microdilution); format: cell-based; conditions: 1:1 (wt:wt) combination with Rifampicin, MIC = total drug concentration; for MIC A. baumannii CCUG57249: strain CCUG57249; for MIC A. baumannii NCTC 13424: strain NCTC 13424; for MIC A. baumannii ATCC BAA-747: strain ATCC BAA-747; for MIC A. baumannii NCTC 13423: strain NCTC 13423
Summary of the method: (§2)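 Read-out is the total-drug MIC of a 1:1 weight ratio combination with another agent, e.g. rifampicin. Duplicates within 2-fold gave the lower value; wider spread meant a non-valid assay. Where compounds were tested multiple times, the mode is given.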

Klebsiella pneumoniae [6] = assay: as above; format: cell-based; conditions: 1:1 (wt:wt) combination with Rifampicin, MIC = total drug concentration; for MIC K. pneumoniae ATCC 4352: strain ATCC 4352; for MIC K. pneumoniae CCUG-59348: strain CCUG-59348; for MIC K. pneumoniae NCTC 13438: strain NCTC 13438; for MIC K. pneumoniae ATCC-BAA-2146: strain ATCC-BAA-2146
Summary of the method: as §2

Pseudomonas aeruginosa [7] = assay: as above; format: cell-based; conditions: 1:1 (wt:wt) combination with Rifampicin, MIC = total drug concentration; for MIC P. aeruginosa ATCC 27853: strain ATCC 27853; for MIC P. aeruginosa ATCC-47: strain ATCC-47; for MIC P. aeruginosa CCUG 59626: strain CCUG 59626; for MIC P. aeruginosa ATCC CRM-9027: strain ATCC CRM-9027
Summary of the method: as §2

Escherichia coli [8] = assay: as above; format: cell-based; conditions: 1:1 (wt:wt) combination with Rifampicin, MIC = total drug concentration; for MIC E. coli ATCC25922: strain ATCC25922
Summary of the method: as §2

HK-2 cell line = assay: In vitro renal cell toxicity assay (resazurin reduction); format: cell-based, human
[9] = 2 mg/kg IV three times at 1, 3.5 and 6 hours post infection

Structure (SMILES)	MIC A. baumannii ATCC13424 (Acinetobacter baumannii [1])	MIC A. baumannii CCUG57249 (Acinetobacter baumannii [1])	MIC K. pneumoniae CCUG-59348 (Klebsiella pneumoniae [2])	MIC P. aeruginosa ATCC 27853 (Pseudomonas aeruginosa [3])	MIC P. aeruginosa ATCC-47 (Pseudomonas aeruginosa [3])	MIC P. aeruginosa CCUG 59626 (Pseudomonas aeruginosa [3])	MIC E. coli ATCC25922 (Escherichia coli [4])	MIC A. baumannii CCUG57249 (Acinetobacter baumannii [5])	MIC A. baumannii NCTC 13424 (Acinetobacter baumannii [5])	MIC K. pneumoniae CCUG-59348 (Klebsiella pneumoniae [6])	MIC P. aeruginosa ATCC 27853 (Pseudomonas aeruginosa [7])	MIC P. aeruginosa ATCC-47 (Pseudomonas aeruginosa [7])	MIC P. aeruginosa CCUG 59626 (Pseudomonas aeruginosa [7])	MIC E. coli ATCC25922 (Escherichia coli [8])	MIC K. pneumoniae ATCC-BAA2146 (Klebsiella pneumoniae [2])	MIC E. coli NCTC9001 (Escherichia coli [4])	MIC A. baumannii ATCC BAA-747 (Acinetobacter baumannii [5])	MIC K. pneumoniae ATCC-BAA-2146 (Klebsiella pneumoniae [6])	Log reduction from vehicle (CFU/g) (P. aeruginosa ATCC 27853; 2 mg/kg, 6 h)	Log reduction from vehicle (CFU/g) (P. aeruginosa ATCC 27853; 4 mg/kg, 6 h)	further results
CC(C)C[C@@H]1NC(=O)[C@@H](Cc2ccccc2)NC(=O)[C@H](CCN)NC(=O)[C@@H](NC(=O)[C@H](CN)NC(=O)[C@@H](NC(=O)CC(N)C2CCCCC2)C(C)O)CCNC(=O)[C@H](C(C)O)NC(=O)[C@H](CCN)NC(=O)[C@H](CCN)NC1=O (stereo partly drawn) [Example 47, [3-Amino-3-cyclohexyl-propionyl]-L-Thr-L-Dap-polymyxin B heptapeptide, TFA salt] ({ξβ3hGly(cHex)}-[Thr(3ξ)][Dap][Dab][Dab][dF]L[Dab][Dab][Thr(3ξ)]; lactam 3-C)	1 micrograms/mL	0.25 micrograms/mL	>32 micrograms/mL	≤0.06 micrograms/mL	0.25 micrograms/mL	0.125 micrograms/mL	4 micrograms/mL	≤0.06 micrograms/mL	0.125 micrograms/mL	–	0.125 micrograms/mL	0.125 micrograms/mL	0.125 micrograms/mL	≤0.06 micrograms/mL	0.5 micrograms/mL	4 micrograms/mL	≤0.06 micrograms/mL	0.25 micrograms/mL	−0.09 log CFU/g	1.07 log CFU/g	MIC A. baumannii ATCCBAA-747 (Acinetobacter baumannii [1]): 0.5 micrograms/mL; MIC A. baumannii NCTC 13423 (Acinetobacter baumannii [1]; strain NCTC13423): 0.5 micrograms/mL; MIC K. pneumoniae ATCC 4352 (Klebsiella pneumoniae [2]): 0.5 micrograms/mL; MIC P. aeruginosa ATCCCRM-9027 (Pseudomonas aeruginosa [3]): ≤0.06 micrograms/mL; effect on thigh burdens (P. aeruginosa ATCC 27853; [9]): did not affect thigh burdens significantly; reduction of thigh burdens (P. aeruginosa ATCC 27853): 1.1 Log10 CFU/g; MIC A. baumannii NCTC 13423 (Acinetobacter baumannii [5]): 0.125 micrograms/mL; MIC K. pneumoniae ATCC 4352 (Klebsiella pneumoniae [6]): 0.125 micrograms/mL; MIC P. aeruginosa ATCC CRM-9027 (Pseudomonas aeruginosa [7]): 0.125 micrograms/mL; MIC E. coli NCTC9001 (Escherichia coli [8]; strain NCTC9001): 0.125 micrograms/mL
CC(C)C[C@@H]1NC(=O)[C@@H](Cc2ccccc2)NC(=O)[C@H](CCN)NC(=O)[C@@H](NC(=O)[C@H](CCN)NC(=O)[C@@H](NC(=O)Cc2cccc(CN)c2)C(C)O)CCNC(=O)[C@H](C(C)O)NC(=O)[C@H](CCN)NC(=O)[C@H](CCN)NC1=O (some centres unmarked) [Example A1, 2-(3-(Aminomethyl)phenyl) ethanoyl polymyxin B nonapeptide] ({NHCH2(1,3-C6H4)CH2CO}-[Thr(3ξ)][Dab][Dab][Dab][dF]L[Dab][Dab][Thr(3ξ)]; lactam 3-C)	–	–	–	–	–	–	–	–	–	–	–	–	–	–	–	–	–	–	–	–	HK-2 IC50 rel to PMB (HK-2 cell line): 8

More lines, main results first:

MIC A. baumannii ATCC13424 (Acinetobacter baumannii [1])	MIC A. baumannii CCUG57249 (Acinetobacter baumannii [1])	MIC K. pneumoniae CCUG-59348 (Klebsiella pneumoniae [2])	MIC P. aeruginosa ATCC 27853 (Pseudomonas aeruginosa [3])	MIC P. aeruginosa ATCC-47 (Pseudomonas aeruginosa [3])	MIC P. aeruginosa CCUG 59626 (Pseudomonas aeruginosa [3])	MIC E. coli ATCC25922 (Escherichia coli [4])	MIC A. baumannii CCUG57249 (Acinetobacter baumannii [5])	MIC A. baumannii NCTC 13424 (Acinetobacter baumannii [5])	MIC K. pneumoniae CCUG-59348 (Klebsiella pneumoniae [6])	MIC P. aeruginosa ATCC 27853 (Pseudomonas aeruginosa [7])	MIC P. aeruginosa ATCC-47 (Pseudomonas aeruginosa [7])	MIC P. aeruginosa CCUG 59626 (Pseudomonas aeruginosa [7])	MIC E. coli ATCC25922 (Escherichia coli [8])	MIC K. pneumoniae ATCC-BAA2146 (Klebsiella pneumoniae [2])	MIC E. coli NCTC9001 (Escherichia coli [4])	MIC A. baumannii ATCC BAA-747 (Acinetobacter baumannii [5])	MIC K. pneumoniae ATCC-BAA-2146 (Klebsiella pneumoniae [6])	Structure (SMILES)	Log reduction from vehicle (CFU/g) (P. aeruginosa ATCC 27853; 2 mg/kg, 6 h)	Log reduction from vehicle (CFU/g) (P. aeruginosa ATCC 27853; 4 mg/kg, 6 h)	further results
4 micrograms/mL	4 micrograms/mL	>8 micrograms/mL	0.125 micrograms/mL	2 micrograms/mL	0.25 micrograms/mL	2 micrograms/mL	0.5 micrograms/mL	0.5 micrograms/mL	2 micrograms/mL	0.25 micrograms/mL	0.5 micrograms/mL	0.5 micrograms/mL	0.25 micrograms/mL	–	–	–	–	CC(C)C[C@@H]1NC(=O)[C@@H](Cc2ccccc2)NC(=O)[C@H](CCN)NC(=O)[C@@H](NC(=O)[C@H](CCN)NC(=O)[C@@H](NC(=O)C(O)C2CCCCC2)C(C)O)CCNC(=O)[C@H](C(C)O)NC(=O)[C@H](CCN)NC(=O)[C@H](CCN)NC1=O (mixture of isomers) [Example 27, 2-(RS)-(2-Hydroxy-2-cyclohexyl)ethanoyl polymyxin B nonapeptide]	0.24 log CFU/g	−0.58 log CFU/g	MIC K. pneumoniae ATCC 4352 (Klebsiella pneumoniae [2]): 2 micrograms/mL; MIC K. pneumoniae NCTC-13438 (Klebsiella pneumoniae [2]): >8 micrograms/mL; effect on thigh burdens (P. aeruginosa ATCC 27853; 2 or 4 mg/kg IV three times at 1, 3.5 and 6 hours post infection): did not reduce thigh burdens significantly; MIC K. pneumoniae ATCC 4352 (Klebsiella pneumoniae [6]): 0.125 micrograms/mL; MIC K. pneumoniae NCTC 13438 (Klebsiella pneumoniae [6]): 0.5 micrograms/mL
1 micrograms/mL	1 micrograms/mL	>32 micrograms/mL	–	1 micrograms/mL	0.5 micrograms/mL	–	0.125 micrograms/mL	0.125 micrograms/mL	2 micrograms/mL	0.125 micrograms/mL	0.5 micrograms/mL	0.25 micrograms/mL	0.125 micrograms/mL	32 micrograms/mL	32 micrograms/mL	0.125 micrograms/mL	0.5 micrograms/mL	CC(C)C[C@@H]1NC(=O)[C@@H](Cc2ccccc2)NC(=O)[C@H](CCN)NC(=O)[C@@H](NC(=O)[C@H](CCN)NC(=O)[C@@H](NC(=O)CC(N)c2ccccc2)C(C)O)CCNC(=O)[C@H](C(C)O)NC(=O)[C@H](CCN)NC(=O)[C@H](CCN)NC1=O (stereo partly drawn) [Example 28, [3-(R,S)-3-Amino-3-phenylpropanoyl] Polymyxin B nonapeptide] (ξβ3hPhg-[Thr(3ξ)][Dab][Dab][Dab][dF]L[Dab][Dab][Thr(3ξ)]; lactam 3-C)	–	–	MIC K. pneumoniae NCTC-13438 (Klebsiella pneumoniae [2]): 32 micrograms/mL; Log reduction from vehicle (CFU/g) (P. aeruginosa ATCC 27853; 2 mg/kg, 9 h): −0.38 log CFU/g; Log reduction from vehicle (CFU/g) (P. aeruginosa ATCC 27853; 4 mg/kg, 9 h): 0.20 log CFU/g; MIC A. baumannii NCTC 13423 (Acinetobacter baumannii [5]): ≤0.06 micrograms/mL; MIC K. pneumoniae NCTC 13438 (Klebsiella pneumoniae [6]): 0.25 micrograms/mL; MIC P. aeruginosa ATCC CRM-9027 (Pseudomonas aeruginosa [7]): 0.5 micrograms/mL
1 micrograms/mL	4 micrograms/mL	>32 micrograms/mL	0.25 micrograms/mL	0.25 micrograms/mL	0.125 micrograms/mL	4 micrograms/mL	0.25 micrograms/mL	0.25 micrograms/mL	2 micrograms/mL	0.25 micrograms/mL	0.25 micrograms/mL	0.5 micrograms/mL	0.5 micrograms/mL	8 micrograms/mL	8 micrograms/mL	0.25 micrograms/mL	0.5 micrograms/mL	CC(C)C[C@@H]1NC(=O)[C@@H](Cc2ccccc2)NC(=O)[C@H](CCN)NC(=O)[C@@H](NC(=O)[C@H](CCN)NC(=O)[C@@H](NC(=O)C[C@H](N)c2ccc3ccccc3c2)C(C)O)CCNC(=O)[C@H](C(C)O)NC(=O)[C@H](CCN)NC(=O)[C@H](CCN)NC1=O (stereo partly drawn) [Example 38, (S)-3-Amino-3-(naphthalene-2-yl)propanoyl polymyxin B nonapeptide, trifluoroacetate salt] (X6-[Thr(3ξ)][Dab][Dab][Dab][dF]L[Dab][Dab][Thr(3ξ)]; lactam 3-C)	−0.37 log CFU/g	4.94 log CFU/g	MIC A. baumannii ATCCBAA-747 (Acinetobacter baumannii [1]): 0.5 micrograms/mL; MIC P. aeruginosa ATCCCRM-9027 (Pseudomonas aeruginosa [3]): 0.25 micrograms/mL; effect on thigh burdens (P. aeruginosa ATCC 27853; [9]): did not affect thigh burdens significantly; reduction of thigh burdens (P. aeruginosa ATCC 27853): 4.9 Log10 CFU/g; MIC P. aeruginosa ATCC CRM-9027 (Pseudomonas aeruginosa [7]): 0.5 micrograms/mL
